The record followed here is patent US20100093725A1, “SEMI-SOLID FORMULATIONS OF PHOSPHOLIPASE ENZYME INHIBITORS” (Wyeth, priority 2006, published 2010).

In general, solubility refers to how much of the substance goes into solution per volume.

Data set [1] relates to carrageenan-induced paw edema. As to the kind of experiment: Rat carrageenan-induced paw edema (CPE) study. It counts as in vivo. As to the method:
Data from a rat carrageenan-induced paw edema (CPE) study indicated the minimum efficacious exposure of 4-(3-{5-chloro-1-(diphenylmethyl)-2-[2-({[2-(trifluoromethyl)benzyl]sulfonyl}amino) ethyl]-1H-indol-3-yl}propyl)benzoic acid was 1360 ng*hr/ml.

Data set [2] in a line: Solubility at room temperature in water, acid and basic conditions. The format is physicochemical. The note with it: aqueous solution under acid conditions (free acid form), aqueous buffer, HPLC detection limit, read-out: intrinsic solubility of the free acid. As to the method:
The solubility of 4-(3-{5-chloro-1-(diphenylmethyl)-2-[2-({[2-(trifluoromethyl)benzyl]sulfonyl}amino)ethyl]-1H-indol-3-yl}propyl)benzoic acid was measured at room temperature in water, acid and basic conditions.

Each structure is given as a SMILES string.

In turn, `O=C(O)c1ccc(CCCc2c(CCNS(=O)(=O)Cc3ccccc3C(F)(F)F)n(C(c3ccccc3)c3ccccc3)c3ccc(Cl)cc23)cc1` [4-(3-{5-chloro-1-(diphenylmethyl)-2-[2-({[2-(trifluoromethyl)benzyl]sulfonyl}amino)ethyl]-1H-indol-3-yl}propyl)benzoic acid] showed a minimum efficacious exposure in data set [1] of 1360 ng·h/mL. Further, in data set [2], the solubility is < 0.031 µg/mL.
